The values below come from patent publication US9693997B2, “Antiviral compounds” (priority 2013, dated 2017).

Each structure is given as a SMILES string. Where a name gives a salt, the structure may show the parent alone. Read-outs that look alike come from different tables or passages of the source. Some results are limits rather than exact numbers.

Assay [1] concerns pseudotyped VSV G particles (VSVpp) in Huh7-high CD81 cells. Put plainly: microbe, parasite or virus in culture. The assay is classed as cell-based, vesicular stomatitis virus.
Assay [2] deals with Pseudotyped HCV GT1b particles (HCVpp), entry into Huh7-high CD81 cells. Put plainly: microbe, parasite or virus in culture. The class given is cell-based, HCV GT1b Con1 strain.
Setting [3] is: Vesicular stomatitis virus, 72 h, read-out: VSVpp (EC50, μM).
Setting [4] is: Hepatitis C virus, GT1B, 72 h, read-out: HCVpp GT-1b (EC50, μM).

With `CC(C)N1CC(C)(NS(=O)(=O)c2ccc(-c3c(Cl)cc(Nc4n[nH]c(N)n4)cc3C(F)(F)F)cc2)C1` [Compound 211, 4′-(5-amino-1H-1,2,4-triazol-3-ylamino)-2′-chloro-N-(1-isopropyl-3-methylazetidin-3-yl)-6′-(trifluoromethyl)biphenyl-4-sulfonamide; compound with trifluoro-acetic acid], the EC50 in assay [1] (read-out: VSVpp (EC50)) stood at 3.65 µM; in assay [2] (read-out: HCVpp GT-1b (EC50)), 0.012 µM.
For the compound `COc1ccc(-c2c(Cl)cc(Nc3n[nH]c(N)n3)cc2C(F)(F)F)cc1S(=O)(=O)NC1(C)CN(C(=O)OC(C)(C)C)C1` [Compound 212, tert-butyl 3-(4′-(5-amino-1H-1,2,4-triazol-3-ylamino)-2′-chloro-4-methoxy-6′-(trifluoromethyl)biphenyl-3-ylsulfonamido)-3-methylazetidine-1-carboxylate], the values for the EC50 in assay [1] (setting [3]) and in assay [2] (setting [4]) were 1.42 µM and 0.005 µM, respectively.
Take `CNCCNS(=O)(=O)c1ccc(-c2c(Cl)cc(Nc3n[nH]c(N)n3)cc2C(F)(F)F)cc1` [Compound 213, 4′-(5-amino-1H-1,2,4-triazol-3-ylamino)-2′-chloro-N-(2-(methylamino)ethyl)-6′-(trifluoromethyl)biphenyl-4-sulfonamide hydrochloride]: the EC50 in assay [1] (setting [3]) is more than 10 µM; in assay [2] (setting [4]) it was 0.062 µM.
Take `Nc1nc(Nc2cc(Cl)c(-c3ccc(S(=O)(=O)N4CCNCC45CC5)cc3)c(C(F)(F)F)c2)n[nH]1` [Compound 214, N3-(4′-(4,7-diazaspiro[2.5]octan-4-ylsulfonyl)-2-chloro-6-(trifluoromethyl)biphenyl-4-yl)-1H-1,2,4-triazole-3,5-diamine hydrochloride]: the EC50 in assay [1] (setting [3]) turned out to be 3.36 µM; in assay [2] (setting [4]), 0.048 µM.
The like results for `COc1ccc(-c2c(Cl)cc(Nc3n[nH]c(N)n3)cc2C(F)(F)F)cc1S(=O)(=O)NC1(C)CNC1` [Compound 215, 4′-(5-amino-1H-1,2,4-triazol-3-ylamino)-2′-chloro-4-methoxy-N-(3-methylazetidin-3-yl)-6′-(trifluoromethyl)biphenyl-3-sulfonamide hydrochloride] were, in that order, more than 10 µM and 0.111 µM.
As to `COc1ccc(-c2c(Cl)cc(Nc3n[nH]c(N)n3)cc2C(F)(F)F)cc1S(=O)(=O)NC(C)(C)C` [Compound 216, 4′-(5-Amino-1H-[1,2,4]triazol-3-ylamino)-6′-chloro-4-methoxy-2′-trifluoromethyl-biphenyl-3-sulfonic acid tert-butylamide], the results for the EC50 in assay [1] (setting [3]) and in assay [2] (setting [4]) were 6.48 µM and 0.004 µM, respectively.
The like results for `Nc1nc(Nc2cc(Cl)c(-c3ccc(S(=O)(=O)N4CCCC4)cc3)c(Cl)c2)n[nH]1` [Compound 220, N*3*-[2,6-Dichloro-4′-(pyrrolidine-1-sulfonyl)-biphenyl-4-yl]-1H-[1,2,4]triazole-3,5-diamine] were, in that order, 24.8 µM and 0.028 µM.
As to `COc1ccc(-c2c(Cl)cc(Nc3n[nH]c(N)n3)cc2C(F)(F)F)cc1S(=O)(=O)NC1CCN(C(=O)OC(C)(C)C)CC1` [Compound 221, 4-[4′-(5-Amino-1H-[1,2,4]triazol-3-ylamino)-6′-chloro-4-methoxy-2′-trifluoromethyl-biphenyl-3-sulfonylamino]-piperidine-1-carboxylic acid tert-butyl ester], the EC50 amounted to 4.55 µM in assay [1] (setting [3]) and 0.003 µM in assay [2] (setting [4]).
As to `CC(C)(C)N(CC(F)(F)F)S(=O)(=O)c1ccc(-c2c(Cl)cc(Nc3n[nH]c(N)n3)cc2C(F)(F)F)cc1` [Compound 223, 4′-(5-Amino-1H-[1,2,4]triazol-3-ylamino)-6′-chloro-2′-trifluoromethyl-biphenyl-4-sulfonic acid tert-butyl-(2,2,2-trifluoro-ethyl)-amide], the EC50 came out at 9.8 µM in assay [1] (setting [3]) and 0.029 µM in assay [2] (setting [4]).
On to `Nc1nc(Nc2cc(Cl)c(-c3ccc(S(=O)(=O)N4CC(F)(F)C4)cc3)c(C(F)(F)F)c2)n[nH]1` [Compound 224, N*3*-[6-Chloro-4′-(3,3-difluoro-azetidine-1-sulfonyl)-2-trifluoromethyl-biphenyl-4-yl]-1H-[1,2,4]triazole-3,5-diamine], for which the EC50 worked out at 4.57 µM in assay [1] (setting [3]) and 0.02 µM in assay [2] (setting [4]).
Regarding `COc1ccc(-c2c(Cl)cc(Nc3n[nH]c(N)n3)cc2C(F)(F)F)cc1S(=O)(=O)NC1(C#N)CC1` [Compound 225], the EC50 in assay [1] (setting [3]) was more than 10 µM; in assay [2] (setting [4]), 0.031 µM.
On the same counts, the results for `CC(C)(CO)NS(=O)(=O)c1ccc(-c2c(Cl)cc(Nc3n[nH]c(N)n3)cc2C(F)(F)F)cc1` [Compound 226, 4′-(5-Amino-1H-[1,2,4]triazol-3-ylamino)-6′-chloro-2′-trifluoromethyl-biphenyl-4-sulfonic acid (2-hydroxy-1,1-dimethyl-ethyl)-amide] are 5.39 µM and 0.032 µM.
`COc1ccc(-c2c(Cl)cc(Nc3n[nH]c(N)n3)cc2C(F)(F)F)cc1S(=O)(=O)NC1CCN(C(C)=O)CC1` [Compound 227, 4′-(5-Amino-1H-[1,2,4]triazol-3-ylamino)-6′-chloro-4-methoxy-2′-trifluoromethyl-biphenyl-3-sulfonic acid (1-acetyl-piperidin-4-yl)-amide]: the results for the EC50 in assay [1] (setting [3]) and in assay [2] (setting [4]) were more than 10 µM and 0.042 µM, respectively.
As for `CC(C)S(=O)(=O)c1ccc(-c2c(Cl)cc(Nc3n[nH]c(N)n3)cc2C(F)(F)F)cc1` [Compound 228, N*3*-[6-Chloro-4′-(propane-2-sulfonyl)-2-trifluoromethyl-biphenyl-4-yl]-1H-[1,2,4]triazole-3,5-diamine], the EC50 in assay [1] (setting [3]) is 7.52 µM; in assay [2] (read-out: HCVpp GT-1b (EC50)), 0.042 µM.
In the case of `COc1ccc(-c2c(Cl)cc(Nc3n[nH]c(N)n3)cc2C(F)(F)F)cc1OC(C)C` [Compound 229, N*3*-(6-Chloro-3′-isopropoxy-4′-methoxy-2-trifluoromethyl-biphenyl-4-yl)-1H-[1,2,4]triazole-3,5-diamine], the values for the EC50 in assay [1] (setting [3]) and in assay [2] (setting [4]) were 6.47 µM and 0.072 µM, respectively.
For `CC(C)(C)Oc1ccc(-c2c(Cl)cc(Nc3n[nH]c(N)n3)cc2C(F)(F)F)cc1` [Compound 230, N*3*-(4′-tert-Butoxy-6-chloro-2-trifluoromethyl-biphenyl-4-yl)-1H-[1,2,4]triazole-3,5-diamine], the figures for the EC50 in assay [1] (setting [3]) and in assay [2] (setting [4]) were more than 10 µM and 0.332 µM, respectively.
On the same counts, the results for `COc1ccc(-c2c(Cl)cc(Nc3n[nH]c(N)n3)cc2C(F)(F)F)cc1C(F)(F)F` [Compound 231, N*3*-(6-Chloro-4′-methoxy-2,3′-bis-trifluoromethyl-biphenyl-4-yl)-1H-[1,2,4]triazole-3,5-diamine] are more than 10 µM and 0.41 µM.
On to `Nc1nc(Nc2cc(Cl)c(-c3ccc(S(=O)(=O)N4CC(F)C4)cc3)c(C(F)(F)F)c2)n[nH]1` [Compound 233, N*3*-[6-Chloro-4′-(3-fluoro-azetidine-1-sulfonyl)-2-trifluoromethyl-biphenyl-4-yl]-1H-[1,2,4]triazole-3,5-diamine], for which the figures for the EC50 in assay [1] (setting [3]) and in assay [2] (setting [4]) were more than 10 µM and 0.051 µM, respectively.
Turning to `COc1ccc(-c2c(Cl)cc(Nc3n[nH]c(N)n3)cc2C(F)(F)F)cc1S(=O)(=O)N(CC(F)(F)F)C1CCNCC1` [Compound 234, 4′-(5-Amino-1H-[1,2,4]triazol-3-ylamino)-6′-chloro-4-methoxy-2′-trifluoromethyl-biphenyl-3-sulfonic acid piperidin-4-yl-(2,2,2-trifluoro-ethyl)-amide; compound with trifluoro-acetic acid], the EC50 was more than 10 µM in assay [1] (setting [3]) and 0.005 µM in assay [2] (setting [4]).

Broadly, the EC50 is the concentration at which the effect is half-maximal.
